Test results from PubChem BioAssay (NCI).
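Where inhibition never reached the appropriate level, the endpoint shown equals the highest concentration tested. Otherwise, values were interpolated linearly from a five-concentration, 48-hour dose response in 96-well plates. TGI: concentration producing complete growth inhibition.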

Each molecule was assayed on SF-268 CNS (assay: NCI-60 cell line screen, 48 h).

Point of comparison: `COC(=O)C1=C(OC(=O)c2ccccc2)C(C(=O)OC)[C@]2(O)[C@@H](C(=O)OC)[C@H]1C[C@@H](c1ccccc1)[C@@H]2C(=O)OC` (stereo partly drawn), TGI 36.8 µM. Against it:
- COC(=O)C1=C(C)N2[C@H](C(=O)O)CO[C@@]2(C)[C@H](C(=O)OC)[C@H]1c1cccc([N+](=O)[O-])c1 — higher, > 100 µM
- Cc1ccc(/C=C2\CCCC(CN3CCCCC3)C2=O)cc1 (stereo not drawn) — 9-fold lower, 4.07 µM
- CCOc1cc(NC(C)=O)ccc1C(=O)NN1C(=O)C(Cl)C1c1ccco1 (stereo not drawn) — within 1.5-fold, 35.1 µM
- OC(c1ccc(-c2ccccc2)cc1)C(F)(F)c1nc2ccccc2o1 (stereo not drawn) — higher, > 100 µM
- COC(=O)c1cnn2c1n[n+]([O-])c1ccccc12 — higher, > 100 µM
- Nc1ccc(CCN2CCN(CCCc3ccccc3)CC2)cc1 — higher, > 100 µM
- C[C@H]1C=C2[C@@H]3CC(C)(C(=O)O)CC[C@]3(C)CC[C@]2(C)[C@]2(C)CC[C@H]3C(C)(C)[C@@H](OC(=O)c4cccc5c(=O)c6ccccc6[nH]c45)CC[C@]3(C)[C@@H]12 (stereo partly drawn) — higher, > 100 µM
- COC(=O)c1c(OC(C)=O)ccc2c1c1c(OC(C)=O)c3ccccc3c(OC(C)=O)c1n2Cc1ccccc1 — 1.9-fold lower, 19.4 µM
- COc1ccc2oc(=N)c(C(=O)Nc3ccccn3)cc2c1 — higher, > 100 µM
- N#C/C(=C\c1c[nH]c2ccccc12)C(=O)c1ccc(O)c(O)c1 — higher, > 100 µM
- CN(C)CCCN1c2ccccc2CCc2ccc([N+](=O)[O-])cc21 — higher, > 100 µM
- CC(C)(C)OC(=O)NCCC1CN(C(=O)c2ccccc2)c2ccccc21 (stereo not drawn) — higher, > 100 µM
- O=C(/C=C/c1csc(-c2ccccc2)n1)NCc1ccc(C(=O)NCc2ccccc2)cc1 — higher, > 100 µM

The molecules below were run on SR leukemia (assay: NCI-60 cell line screen, 48 h).

Point of comparison: `Cc1cc(O)c(C(C)C)cc1C1(c2cc(C(C)C)c(O)cc2C)OC(=O)c2ccccc21`, TGI 4.02 µM. Against it:
- C/C(=C/CC[C@]1(CO)CC[C@]2(CO)[C@H](CC[C@@H]3[C@@]4(C)CC[C@H](OC5OCC(O)C(O)C5OC5OC(CO)C(O)C(O)C5O)C(C)(C)[C@@H]4CC[C@]32C)[C@H]1O)CO (stereo partly drawn) — higher, > 100 µM
- C=CCOC(=O)C1C2OC3(C(C(=O)OC)=C2C(=O)OC)c2ccccc2CCC13 (stereo not drawn) — higher, > 10 µM
- Cc1ccc(/C(O)=C/C(=O)C(=O)NN=C(c2ccccc2)c2ccccc2)cc1 — higher, > 100 µM
- CC[C@@H](/C=C\CCC(=O)C[C@H](O)CCC=C(C)C)O[Si](C(C)C)(C(C)C)C(C)C — higher, > 100 µM
- Cc1ccc2nc(NC(=O)/C(Cc3nc4ccc(Cl)cc4[nH]c3=O)=N\NC(C)(C)C)sc2c1 — higher, > 100 µM
- CCOC(=O)c1ccc(C(=O)C(C(C)=O)C(=O)OC(C)(C)C)[nH]1 (stereo not drawn) — higher, > 100 µM
- O=c1onc2c3ccccc3ncn12 — higher, > 100 µM
- CC(C)[C@@H]1ON1C(C)c1ccccc1 (stereo partly drawn) — higher, > 100 µM
- O=C(Nc1cccc(F)c1)c1cc2ccc(O)cc2oc1=Nc1ccccc1F — 9.8-fold higher, 39.5 µM
- COc1ccc(C(=O)c2[nH]c(Nc3ccc(Cl)cc3)c(C(=S)Nc3ccccc3)c2N)cc1 — higher, > 100 µM
- CC(C)(CC(O)C#N)/[N+]([O-])=[N+](\[O-])C(C)(C)CC(O)C#N (stereo not drawn) — 12-fold higher, 49.5 µM
- COc1ccc(-n2cnc3c(NC(CCSC)C(=O)O)ncnc32)cc1 (stereo not drawn) — higher, > 100 µM
- COC(=O)C1=C(C)N2[C@H](C(=O)O)CO[C@@]2(C)[C@H](C(=O)OC)[C@H]1c1cccc([N+](=O)[O-])c1 — higher, > 100 µM
- Cc1ccc(/C=C2\CCCC(CN3CCCCC3)C2=O)cc1 (stereo not drawn) — higher, > 100 µM
- CCOc1cc(NC(C)=O)ccc1C(=O)NN1C(=O)C(Cl)C1c1ccco1 (stereo not drawn) — 8.9-fold higher, 35.9 µM
- OC(c1ccc(-c2ccccc2)cc1)C(F)(F)c1nc2ccccc2o1 (stereo not drawn) — higher, > 100 µM
- COC(=O)c1cnn2c1n[n+]([O-])c1ccccc12 — higher, > 100 µM
- Nc1ccc(CCN2CCN(CCCc3ccccc3)CC2)cc1 — higher, > 100 µM
- C[C@H]1C=C2[C@@H]3CC(C)(C(=O)O)CC[C@]3(C)CC[C@]2(C)[C@]2(C)CC[C@H]3C(C)(C)[C@@H](OC(=O)c4cccc5c(=O)c6ccccc6[nH]c45)CC[C@]3(C)[C@@H]12 (stereo partly drawn) — higher, > 100 µM
- COC(=O)c1c(OC(C)=O)ccc2c1c1c(OC(C)=O)c3ccccc3c(OC(C)=O)c1n2Cc1ccccc1 — higher, > 50 µM
- COc1ccc2oc(=N)c(C(=O)Nc3ccccn3)cc2c1 — higher, > 100 µM
- N#C/C(=C\c1c[nH]c2ccccc12)C(=O)c1ccc(O)c(O)c1 — higher, > 31.6 µM
- CN(C)CCCN1c2ccccc2CCc2ccc([N+](=O)[O-])cc21 — higher, > 100 µM
- CC(C)(C)OC(=O)NCCC1CN(C(=O)c2ccccc2)c2ccccc21 (stereo not drawn) — higher, > 100 µM
- COC(=O)C1=C(OC(=O)c2ccccc2)C(C(=O)OC)[C@]2(O)[C@@H](C(=O)OC)[C@H]1C[C@@H](c1ccccc1)[C@@H]2C(=O)OC (stereo partly drawn) — 7.8-fold higher, 31.3 µM
- O=C(/C=C/c1csc(-c2ccccc2)n1)NCc1ccc(C(=O)NCc2ccccc2)cc1 — higher, > 100 µM

These molecules were tested on UACC-62 melanoma (assay: NCI-60 cell line screen, 48 h).

Point of comparison: `CC(C)(CC(O)C#N)/[N+]([O-])=[N+](\[O-])C(C)(C)CC(O)C#N` (stereo not drawn), TGI 37.2 µM. Against it:
- C/C(=C/CC[C@]1(CO)CC[C@]2(CO)[C@H](CC[C@@H]3[C@@]4(C)CC[C@H](OC5OCC(O)C(O)C5OC5OC(CO)C(O)C(O)C5O)C(C)(C)[C@@H]4CC[C@]32C)[C@H]1O)CO (stereo partly drawn) — higher, > 100 µM
- C=CCOC(=O)C1C2OC3(C(C(=O)OC)=C2C(=O)OC)c2ccccc2CCC13 (stereo not drawn) — not separable, > 10 µM
- Cc1ccc(/C(O)=C/C(=O)C(=O)NN=C(c2ccccc2)c2ccccc2)cc1 — higher, > 100 µM
- CC[C@@H](/C=C\CCC(=O)C[C@H](O)CCC=C(C)C)O[Si](C(C)C)(C(C)C)C(C)C — higher, > 100 µM
- Cc1ccc2nc(NC(=O)/C(Cc3nc4ccc(Cl)cc4[nH]c3=O)=N\NC(C)(C)C)sc2c1 — higher, > 100 µM
- Cc1cc(O)c(C(C)C)cc1C1(c2cc(C(C)C)c(O)cc2C)OC(=O)c2ccccc21 — 13-fold lower, 2.87 µM
- CCOC(=O)c1ccc(C(=O)C(C(C)=O)C(=O)OC(C)(C)C)[nH]1 (stereo not drawn) — higher, > 100 µM
- O=c1onc2c3ccccc3ncn12 — higher, > 100 µM
- CC(C)[C@@H]1ON1C(C)c1ccccc1 (stereo partly drawn) — higher, > 100 µM
- O=C(Nc1cccc(F)c1)c1cc2ccc(O)cc2oc1=Nc1ccccc1F — 1.6-fold lower, 24 µM
- COc1ccc(C(=O)c2[nH]c(Nc3ccc(Cl)cc3)c(C(=S)Nc3ccccc3)c2N)cc1 — higher, > 100 µM
- COc1ccc(-n2cnc3c(NC(CCSC)C(=O)O)ncnc32)cc1 (stereo not drawn) — higher, > 100 µM
- COC(=O)C1=C(C)N2[C@H](C(=O)O)CO[C@@]2(C)[C@H](C(=O)OC)[C@H]1c1cccc([N+](=O)[O-])c1 — higher, > 100 µM
- Cc1ccc(/C=C2\CCCC(CN3CCCCC3)C2=O)cc1 (stereo not drawn) — 2.3-fold lower, 16.4 µM
- CCOc1cc(NC(C)=O)ccc1C(=O)NN1C(=O)C(Cl)C1c1ccco1 (stereo not drawn) — within 1.5-fold, 25.6 µM
- OC(c1ccc(-c2ccccc2)cc1)C(F)(F)c1nc2ccccc2o1 (stereo not drawn) — higher, > 100 µM
- COC(=O)c1cnn2c1n[n+]([O-])c1ccccc12 — higher, > 100 µM
- Nc1ccc(CCN2CCN(CCCc3ccccc3)CC2)cc1 — higher, > 100 µM
- C[C@H]1C=C2[C@@H]3CC(C)(C(=O)O)CC[C@]3(C)CC[C@]2(C)[C@]2(C)CC[C@H]3C(C)(C)[C@@H](OC(=O)c4cccc5c(=O)c6ccccc6[nH]c45)CC[C@]3(C)[C@@H]12 (stereo partly drawn) — higher, > 100 µM
- COC(=O)c1c(OC(C)=O)ccc2c1c1c(OC(C)=O)c3ccccc3c(OC(C)=O)c1n2Cc1ccccc1 — 1.8-fold lower, 20.3 µM
- COc1ccc2oc(=N)c(C(=O)Nc3ccccn3)cc2c1 — higher, > 100 µM
- N#C/C(=C\c1c[nH]c2ccccc12)C(=O)c1ccc(O)c(O)c1 — higher, > 100 µM
- CN(C)CCCN1c2ccccc2CCc2ccc([N+](=O)[O-])cc21 — within 1.5-fold, 33.3 µM
- CC(C)(C)OC(=O)NCCC1CN(C(=O)c2ccccc2)c2ccccc21 (stereo not drawn) — within 1.5-fold, 42.3 µM
- COC(=O)C1=C(OC(=O)c2ccccc2)C(C(=O)OC)[C@]2(O)[C@@H](C(=O)OC)[C@H]1C[C@@H](c1ccccc1)[C@@H]2C(=O)OC (stereo partly drawn) — 1.6-fold higher, 60.4 µM
- O=C(/C=C/c1csc(-c2ccccc2)n1)NCc1ccc(C(=O)NCc2ccccc2)cc1 — higher, > 100 µM
